Patent US20260240915A1, “USE OF EXTRACELLULAR VESICLES FOR THE TREATMENT OF CANCER” (HENRY FORD HEALTH SYSTEM, priority 2023, published 2026)
“Also recorded” adds a separate entry of the source.

What was measured:
[1] = tested on: Hep3B hepatocellular carcinoma cells; assay: MTT cell viability assay, Hep3B; type: cell-based; conditions: for effect of inhibitor alone on cancer viability: CPZ 2.5 to 10 μg/ml, nystatin 5 to 30 μM; for effect of inhibitor pretreatment on the anti-cancer effect of Hypo-Exo: pretreatment with endocytosis inhibitor, then Hypo-Exo
Description: (§1) Based on preliminary research, we hypothesized that under duress, cells and cell lines might generate exosomes that are deleterious specifically to malignant cells and tissue. We also speculated that exosomes could be loaded with specific microRNA (mi-RNA) that might further enhance anti-cancer activity and specificity. We initiated studies with human cerebral endothelial cells (HCEC) because […], endothelial cells would be able to release exosomes directly into the systemic circulation where they could travel to cancer sites. The initial mechanism of cellular stress we chose for the HCEC cells was oxygen-glucose deprivation (OGD). HCEC cells were exposed to OGD deprivation for a period of four hours and then exosomes were harvested and purified (See methods). HCEC cells exposed to OGD deprivation for longer than four hours started to lose viability. The “4 h-OGD-exosomes” were then tested for their effect on the viability of hepatocellular cancer cell lines, HepG2 and Hep3B, and on the benign liver cell line, THLE-2. To assay the cell viability of target cells, we used the MTT (3-(4,5-Dimethylthiazol-2-yl)-2,5-diphenyltetrazolium bromide) assay (See Methods). All cancer lines used in all of the studies are outlined in Table 1.
(§2) Cells were cultured in medium with indicated treatment.

[2] = tested on: HepG2 hepatocellular carcinoma cells; assay: MTT cell viability assay, HepG2; type: cell-based; conditions: for effect of inhibitor alone on cancer viability: CPZ 2.5 to 10 μg/ml, nystatin 5 to 30 μM
Description: as §1, §2

HCC patients = conditions: study of 600 patients; cited from earlier work
[3] = tested on: primary liver cancer cells taken from patients; assay: Viability of primary liver cancer cells from HCC patients
Description: Exosomes were tested against primary liver cancer cells taken from the patient's tumor as well as non-malignant, normal liver cells taken from a distant site in the explant liver away from the tumor. OGD-Exo were tested along with HCEC-m214-Exo and also with the chemotherapeutic agents, oxaliplatin and Sorafenib. […] OGD-Exo were used at a dose of 10^8 p/ml to avoid excessive killing with OGD-Exo alone. Exosomes were tested against patient 11 (Pt.011) and patient 12 (Pt.012).
3-(4,5-dimethylthiazol-2-yl)-2,5 diplenyltetrazolium bromide (MTT) assay: To measure cell viability, cells were seeded in 96-well plates at a density of 800 cells per well. Cells were cultured in medium with indicated treatment. After 5 days of treatment, medium was removed and MTT was added to each well with an additional 4 hr incubation to allow mitochondrial dehydrogenase to convert MTT into insoluble formazan crystals. The absorption of solubilized formazan was measured at a wavelength of 490 nm by an ELISA plate reader (EL340 microplate reader; Bio-Tek Instruments, Winooske, VT).

[4] = tested on: hepatitis B-related HCC patients; conditions: treatment group, advanced stage patients; cited from earlier work
[5] = tested on: benign THLE-2 liver cell line; assay: MTT cell viability assay, THLE-2; type: cell-based; conditions: benign liver cells
Description: as §1, §2

CN(C)CCCN1c2ccccc2Sc2ccc(Cl)cc21 [CPZ, chlorpromazine]
effect of inhibitor alone on cancer viability [1]: did not affect cancer viability | effect of inhibitor pretreatment on the anti-cancer effect of Hypo-Exo [1]: significantly attenuated the anti-cancer effect of Hypo-Exo | effect of inhibitor alone on cancer viability [2]: did not affect cancer viability | effect of inhibitor pretreatment on the anti-cancer effect of Hypo-Exo ([2]; pretreatment with endocytosis inhibitor, then Hypo-Exo): significantly attenuated the anti-cancer effect of Hypo-Exo; also recorded: blunt the anti-tumor effect of Hypo-Exo

CNC(=O)c1cc(Oc2ccc(NC(=O)Nc3ccc(Cl)c(C(F)(F)F)c3)cc2)ccn1 [Sorafenib]
viability at 0.8 µM ([1]; Homo sapiens, Hep3B, Hypo-Exo 10^8 p/ml, Sorafenib 0.8 µM): 80.5% | increase in survival (HCC patients): three | cytotoxicity at 1.2 µM ([3]; Homo sapiens, read-out: decrease in viability of primary liver cancer cells): 42 to 44% | median overall survival [4]: 6.5 months | viability at 1.2 µM ([2]; Homo sapiens, HepG2, Hypo-Exo 10^8 p/ml, Sorafenib 1.2 μM): 67.4% | effect on cell viability [5]: negligible impact

C[C@@H]1[C@H](O)[C@@H](C)/C=C/C=C/CC/C=C/C=C/C=C/C=C/C(O[C@H]2O[C@H](C)[C@@H](O)[C@H](N)[C@@H]2O)CC2O[C@](O)(CC(O)C(O)CCC(O)CC(O)CC(O)CC(=O)O[C@H]1C)CC(O)C2C(=O)O (some centres unmarked) [nystatin]
effect of inhibitor alone on cancer viability [1]: did not affect cancer viability | effect of inhibitor pretreatment on the anti-cancer effect of Hypo-Exo [1]: significantly diminished the anti-cancer effect of Hypo-Exo; also recorded: blunts the effect of Hypo-Exo | effect of inhibitor alone on cancer viability [2]: did not affect cancer viability

O=C1[O][Pt]2([NH][C@@H]3CCCC[C@H]3[NH]2)[O]C1=O [oxaliplatin]
decrease in viability of primary liver cancer cells ([3]; OGD-Exo 10^8 p/ml, oxaliplatin 0.06125 µM, Sorafenib 1.20 μM, Pt.011 and Pt.012): approximately 20%
